From paper PMC4476799, “Englerin A Agonizes the TRPC4/C5 Cation Channels to Inhibit Tumor Cell Line Proliferation” (PLoS ONE, 2015)
Like-named read-outs stand apart in the source and are kept apart here.

Test system: cancer cell lines from the cancer cell line encyclopedia (CCLE)
Test: Cell line profiling (CLiP) proliferation experiment
Format: cell-based
Details: Homo sapiens; for IC50: read-out: Crossing Point; for EC50: read-out: Inflection Point
Method: Compound profiling experiment and data analysis was performed as previously described. Data was imported and plotted using the Tibco Spotfire DXP application. Lines were categorized as sensitive, intermediate and refractory as follows: Amax<-40 & Inflection Point <2 ~ Sensitive, Amax>-20 & Inflection Point >10 ~ Refractory, all else were called Intermediate. Cancer Cell line HG-U133 Plus 2 data was processed and normalized as described. […] Five sets of refractory cell lines were generated from the pool of refractory cell lines trying to match the lineage composition of the set of sensitive cell lines. The limma package was used as previously described to perform the statistical comparison.

[1] = CHP-212, CHP-212, autonomic_ganglia, NS
[2] = COLO 205, COLO 205, large_intestine, adenocarcinoma
[3] = COLO-668, COLO 668, lung, small_cell_carcinoma
[4] = COR-L279, COR-L279, lung, small_cell_carcinoma
[5] = Calu-6, Calu-6, lung, undifferentiated_carcinoma
[6] = DMS-114, DMS 114, lung, small_cell_carcinoma
[7] = DMS-273, DMS 273, lung, small_cell_carcinoma
[8] = DOHH-2, cell line DOHH-2, haematopoietic_and_lymphoid_tissue
[9] = EFM-19, cell line EFM-19, breast
[10] = FaDu, cell line FaDu, upper_aerodigestive_tract
[11] = G-401, cell line G-401, soft_tissue
[12] = HCC1143, cell line HCC1143, breast

CC(C)[C@@]12C[C@@H](O)[C@@](C)(O1)[C@@H]1CC[C@@H](C)[C@H]1[C@@H]2OC(=O)/C=C/c1ccccc1 [Englerin B]
IC50 (CHL-1, CHL-1, skin, NS): 26.2 µM | IC50 (CHL-1, CHL-1 cells): 26.2 µM | IC50 [1]: 22.7 µM | EC50 [1]: 13.9 µM | EC50 (CHP-212, CHP-212 cells): 13.9 µM | IC50 (CMK, CMK cells): > 30 µM | IC50 [2]: 16.5 µM | EC50 [2]: 11.8 µM | EC50 (COLO 205, COLO 205 cells): 11.8 µM | IC50 (COLO 320, COLO-320, large_intestine, adenocarcinoma): 11 µM | IC50 [3]: 26 µM | EC50 [3]: 26 µM | IC50 (COLO-668, COLO 668 cells): 26 µM | EC50 (COLO-668, COLO 668 cells): 26 µM | IC50 (COLO-680N, COLO-680N (oesophagus)): > 30 µM | IC50 (COLO-680N, oesophagus, squamous_cell_carcinoma): > 30 µM | IC50 (COLO-741, COLO 741, skin, NS): > 30 µM | EC50 (COLO-741, COLO 741, skin, NS): 11.6 µM | IC50 (COLO-741, COLO 741 cells): > 30 µM | EC50 (COLO-741, COLO 741 cells): 11.6 µM | IC50 (COLO-800, COLO-800, skin, NS): > 30 µM | IC50 (COLO-800, cell line COLO-800 (skin, NS)): > 30 µM | IC50 (COLO-829, COLO 829, skin, NS): > 30 µM | IC50 (COLO-829, COLO 829 cells): > 30 µM | IC50 (COR-L23, COR-L23 (lung)): > 30 µM | IC50 (COR-L23, COR-L23, lung, large_cell_carcinoma): > 30 µM | IC50 (COR-L47, COR-L47, lung, small_cell_carcinoma): > 30 µM | IC50 (COR-L47, COR-L47 cells): > 30 µM | IC50 (COR-L88, COR-L88 (lung)): > 30 µM | IC50 (COR-L88, COR-L88, lung, small_cell_carcinoma): > 30 µM | IC50 [4]: 6.69 µM | EC50 [4]: 6.69 µM | IC50 (Calu-1, Calu-1, lung, squamous_cell_carcinoma): > 30 µM | IC50 (Calu-1, cell line Calu-1): > 30 µM | IC50 (Calu-3, Calu-3 (lung)): > 30 µM | IC50 (Calu-3, Calu-3, lung, adenocarcinoma): > 30 µM | IC50 [5]: > 30 µM | EC50 [5]: 11.6 µM | IC50 (Calu-6, Calu-6 cells): > 30 µM | EC50 (Calu-6, Calu-6 cells): 11.6 µM | IC50 (Caov-3, Caov-3, ovary, adenocarcinoma): 15.3 µM | IC50 (DBTRG-05MG, cell line DBTRG-05MG (central_nervous_system, astrocytoma_Grade_IV)): > 30 µM | IC50 (DBTRG-05MG, central_nervous_system, astrocytoma_Grade_IV): > 30 µM | IC50 (DLD-1, DLD-1, large_intestine, adenocarcinoma): 21.7 µM | IC50 (DMS-79, DMS 79 (lung)): > 30 µM | IC50 (DMS-79, cell line DMS 79, lung): > 30 µM | IC50 [6]: 17.5 µM | EC50 [6]: 11.7 µM | IC50 (DMS-114, cell line DMS 114): 17.5 µM | IC50 [7]: 16.4 µM | EC50 [7]: 13.7 µM | IC50 [8]: 13.1 µM | EC50 [8]: 12.9 µM | IC50 (DU-145, cell line DU 145, prostate): 8.94 µM | IC50 (DV-90, cell line DV-90, lung): 18 µM | EC50 (DV-90, cell line DV-90, lung): 14.9 µM | IC50 (Daoy, Daoy (central_nervous_system)): > 30 µM | IC50 (Daoy, central_nervous_system, NS): > 30 µM | IC50 (Detroit 562, Detroit 562, upper_aerodigestive_tract, NS): > 30 µM | IC50 (Detroit 562, cell line Detroit 562): > 30 µM | IC50 (EBC-1, cell line EBC-1, lung): 24 µM | EC50 (EBC-1, cell line EBC-1, lung): 11.6 µM | IC50 (EFM-19, cell line EFM-19 (breast, ductal_carcinoma)): > 30 µM | IC50 [9]: > 30 µM | EC50 [9]: 7.15 µM | IC50 (EOL1, cell line EOL-1, haematopoietic_and_lymphoid_tissue): 11.8 µM | IC50 (ESS-1, cell line ESS-1, endometrium): 18.7 µM | IC50 [10]: 17.8 µM | EC50 [10]: 12.9 µM | IC50 (G-361, cell line G-361, skin): > 30 µM | IC50 (G-361, cell line G-361): > 30 µM | IC50 [11]: 14.3 µM | EC50 [11]: 11.9 µM | EC50 (G-401, cell line G-401): 11.9 µM | IC50 (G-402, cell line G-402, soft_tissue): 9.9 µM | IC50 (GA-10, cell line GA-10, haematopoietic_and_lymphoid_tissue): > 30 µM | IC50 (GA-10, cell line GA-10): > 30 µM | IC50 (GAMG, GAMG (central_nervous_system)): > 30 µM | IC50 (GAMG, cell line GAMG, central_nervous_system): > 30 µM | IC50 (GCIY, cell line GCIY, stomach): 15.8 µM | IC50 (GMS-10, cell line GMS-10, central_nervous_system): > 30 µM | IC50 (GMS-10, cell line GMS-10): > 30 µM | IC50 (Granta-519, cell line GRANTA-519, haematopoietic_and_lymphoid_tissue): > 30 µM | IC50 (Granta-519, cell line GRANTA-519): > 30 µM | IC50 (HCC38, cell line HCC38, breast): > 30 µM | IC50 (HCC38, cell line HCC38): > 30 µM | IC50 (HCC44, cell line HCC-44, lung): 22.8 µM | IC50 (HCC95, cell line HCC-95, lung): 27.6 µM | EC50 (HCC95, cell line HCC-95, lung): 26.7 µM | IC50 (HCC827, cell line HCC827, lung): 19.3 µM | IC50 [12]: > 30 µM | EC50 [12]: 9.85 µM
